Calls of active or inactive are those of the source. How the calls were made is not given here.
Test system: CCRIS mutagenicity, Ames/micronucleus/aberration tests
Experiment: CCRIS mutagenicity studies
[1] = Test System: AMES SALMONELLA TYPHIMURIUM, Strain/Indicator: TA98, Metabolic Activation: NONE, Method: PREINCUBATION
[2] = Test System: AMES SALMONELLA TYPHIMURIUM, Strain/Indicator: TA100, Metabolic Activation: NONE, Method: PREINCUBATION

O=[N+]([O-])c1cccc2c([N+](=O)[O-])cccc12
mutagenic call (End Point: IN VITRO CHROMOSOMAL ABERRATIONS, Test System: CHL CELLS, Metabolic Activation: RAT, LIVER, S-9, SODIUM PHENOBARBITAL AND 5,6-BENZOFLAVONE): active; positive (structural changes)
mutagenic call (Test System: AMES SALMONELLA TYPHIMURIUM, Strain/Indicator: TA98, Metabolic Activation: HAMSTER, LIVER, S-9, AROCLOR 1254 (30%), Method: PREINCUBATION): active; positive
mutagenic call [1]: active; positive
mutagenic call (Test System: AMES SALMONELLA TYPHIMURIUM, Strain/Indicator: TA98, Metabolic Activation: RAT LIVER S-9, PHENOBARBITAL AND BETA-NAPHTHOFLAVONE, Method: PREINCUBATION): active; positive
mutagenic call (Test System: AMES SALMONELLA TYPHIMURIUM, Strain/Indicator: TA98, Metabolic Activation: RAT, LIVER, S-9, AROCLOR 1254 (30%), Method: PREINCUBATION): active; positive
mutagenic call (Test System: AMES SALMONELLA TYPHIMURIUM, Strain/Indicator: TA100, Metabolic Activation: HAMSTER, LIVER, S-9, AROCLOR 1254 (30%), Method: PREINCUBATION): active; positive
mutagenic call [2]: active; positive
mutagenic call (Test System: AMES SALMONELLA TYPHIMURIUM, Strain/Indicator: TA100, Metabolic Activation: RAT LIVER S-9, PHENOBARBITAL AND BETA-NAPHTHOFLAVONE, Method: PREINCUBATION): active; positive
mutagenic call (Test System: AMES SALMONELLA TYPHIMURIUM, Strain/Indicator: TA100, Metabolic Activation: RAT, LIVER, S-9, AROCLOR 1254 (30%), Method: PREINCUBATION): active; positive
mutagenic call (Test System: AMES SALMONELLA TYPHIMURIUM, Strain/Indicator: TA1535, Metabolic Activation: NONE, Method: PREINCUBATION): inactive; negative
mutagenic call (Test System: AMES SALMONELLA TYPHIMURIUM, Strain/Indicator: TA1535, Metabolic Activation: RAT LIVER S-9, PHENOBARBITAL AND BETA-NAPHTHOFLAVONE, Method: PREINCUBATION): inactive; negative
mutagenic call (Test System: AMES SALMONELLA TYPHIMURIUM, Strain/Indicator: TA1537, Metabolic Activation: NONE, Method: PREINCUBATION): active; positive
mutagenic call (Test System: AMES SALMONELLA TYPHIMURIUM, Strain/Indicator: TA1537, Metabolic Activation: RAT LIVER S-9, PHENOBARBITAL AND BETA-NAPHTHOFLAVONE, Method: PREINCUBATION): active; positive
mutagenic call (Test System: AMES SALMONELLA TYPHIMURIUM, Strain/Indicator: TA1538, Metabolic Activation: NONE, Method: PREINCUBATION): active; positive
mutagenic call (Test System: AMES SALMONELLA TYPHIMURIUM, Strain/Indicator: TA1538, Metabolic Activation: RAT LIVER S-9, PHENOBARBITAL AND BETA-NAPHTHOFLAVONE, Method: PREINCUBATION): active; positive
mutagenic call (Test System: E.COLI, Strain/Indicator: WP2UVRA, Metabolic Activation: NONE, Method: PREINCUBATION): inactive; negative
mutagenic call (Test System: E.COLI, Strain/Indicator: WP2UVRA, Metabolic Activation: RAT LIVER S-9, PHENOBARBITAL AND BETA-NAPHTHOFLAVONE, Method: PREINCUBATION): active; positive

O=[N+]([O-])c1ccc(Nc2ncnc3nc[nH]c23)cc1
mutagenic call (Test System: AMES SALMONELLA TYPHIMURIUM, Strain/Indicator: TA98(1,8-DNP), Metabolic Activation: NONE, Method: PREINCUBATION): inactive; negative
mutagenic call (Test System: AMES SALMONELLA TYPHIMURIUM, Strain/Indicator: TA98(1,8-DNP), Metabolic Activation: RAT, LIVER, S-9, PCB, Method: PREINCUBATION): inactive; negative
mutagenic call (Test System: AMES SALMONELLA TYPHIMURIUM, Strain/Indicator: TA98(NR), Metabolic Activation: NONE, Method: PREINCUBATION): inactive; negative
mutagenic call (Test System: AMES SALMONELLA TYPHIMURIUM, Strain/Indicator: TA98(NR), Metabolic Activation: RAT, LIVER, S-9, PCB, Method: PREINCUBATION): inactive; negative
mutagenic call [1]: inactive; negative
mutagenic call (Test System: AMES SALMONELLA TYPHIMURIUM, Strain/Indicator: TA98, Metabolic Activation: RAT, LIVER, S-9, PCB, Method: PREINCUBATION): inactive; negative
mutagenic call (Test System: AMES SALMONELLA TYPHIMURIUM, Strain/Indicator: TA100(1,8-DNP), Metabolic Activation: NONE, Method: PREINCUBATION): inactive; negative
mutagenic call (Test System: AMES SALMONELLA TYPHIMURIUM, Strain/Indicator: TA100(1,8-DNP), Metabolic Activation: RAT, LIVER, S-9, PCB, Method: PREINCUBATION): inactive; negative
mutagenic call (Test System: AMES SALMONELLA TYPHIMURIUM, Strain/Indicator: TA100(NR), Metabolic Activation: NONE, Method: PREINCUBATION): inactive; negative
mutagenic call (Test System: AMES SALMONELLA TYPHIMURIUM, Strain/Indicator: TA100(NR), Metabolic Activation: RAT, LIVER, S-9, PCB, Method: PREINCUBATION): inactive; negative
mutagenic call [2]: inactive; negative
mutagenic call (Test System: AMES SALMONELLA TYPHIMURIUM, Strain/Indicator: TA100, Metabolic Activation: RAT, LIVER, S-9, PCB, Method: PREINCUBATION): inactive; negative
mutagenic call (Test System: AMES SALMONELLA TYPHIMURIUM, Strain/Indicator: YG1020, Metabolic Activation: NONE, Method: PREINCUBATION): inactive; negative
mutagenic call (Test System: AMES SALMONELLA TYPHIMURIUM, Strain/Indicator: YG1020, Metabolic Activation: RAT, LIVER, S-9, PCB, Method: PREINCUBATION): inactive; negative
mutagenic call (Test System: AMES SALMONELLA TYPHIMURIUM, Strain/Indicator: YG1021, Metabolic Activation: NONE, Method: PREINCUBATION): inactive; negative
mutagenic call (Test System: AMES SALMONELLA TYPHIMURIUM, Strain/Indicator: YG1021, Metabolic Activation: RAT, LIVER, S-9, PCB, Method: PREINCUBATION): inactive; negative
mutagenic call (Test System: AMES SALMONELLA TYPHIMURIUM, Strain/Indicator: YG1024, Metabolic Activation: NONE, Method: PREINCUBATION): inactive; negative
mutagenic call (Test System: AMES SALMONELLA TYPHIMURIUM, Strain/Indicator: YG1024, Metabolic Activation: RAT, LIVER, S-9, PCB, Method: PREINCUBATION): inactive; negative
mutagenic call (Test System: AMES SALMONELLA TYPHIMURIUM, Strain/Indicator: YG1025, Metabolic Activation: NONE, Method: PREINCUBATION): inactive; negative
mutagenic call (Test System: AMES SALMONELLA TYPHIMURIUM, Strain/Indicator: YG1025, Metabolic Activation: RAT, LIVER, S-9, PCB, Method: PREINCUBATION): inactive; negative
mutagenic call (Test System: AMES SALMONELLA TYPHIMURIUM, Strain/Indicator: YG1026, Metabolic Activation: NONE, Method: PREINCUBATION): inactive; negative
mutagenic call (Test System: AMES SALMONELLA TYPHIMURIUM, Strain/Indicator: YG1026, Metabolic Activation: RAT, LIVER, S-9, PCB, Method: PREINCUBATION): inactive; negative
mutagenic call (Test System: AMES SALMONELLA TYPHIMURIUM, Strain/Indicator: YG1029, Metabolic Activation: NONE, Method: PREINCUBATION): inactive; negative
mutagenic call (Test System: AMES SALMONELLA TYPHIMURIUM, Strain/Indicator: YG1029, Metabolic Activation: RAT, LIVER, S-9, PCB, Method: PREINCUBATION): inactive; negative

O=C1CCc2ccc3ccc4ccccc4c3c21
mutagenic call (Test System: AMES SALMONELLA TYPHIMURIUM, Strain/Indicator: TA100, Metabolic Activation: RAT, LIVER, S-9, AROCLOR 1254, Method: STANDARD PLATE): inactive; negative

Source: PubChem BioAssay AID1259407 (Chemical Carcinogenesis Research Information System (CCRIS), 2018)
